For data set [1], the system named is collagen-induced arthritis. The data set can be described thus: Inhibitory Effect on Collagen-Induced Arthritis (No. 2), arthritis score. The format is in vivo, DBA/1J mice. Conditions: oral, mean ± SE, maximum 16. As for the experimental part: The preventive effect on the onset of collagen-induced arthritis was tested by using DBA/1J mice in groups of 5-8. Specifically, type II collagen was mixed with an equal volume of Freund's complete adjuvant and emulsified to prepare a 1 mg/ml emulsion. Mice were sensitized by administering 0.1 ml of this emulsion intracutaneously to the root of the tail. After 21 days, the mice were additionally immunized by emulsifying type II collagen in the same manner as before and administering 0.1 ml of the emulsion intraperitoneally so as to induce arthritis.
Animals having arthritis induced in the same manner as described above were used in groups of 7-8. Compound 3 was orally administered, once a day, for 21 days following the additional immunization in a dose of 1, 3 or 10 mg/kg body weight. For comparative purposes, MI43 was similarly administered to another group in a dose of 30 mg/kg body weight. According to the degree of rubor, swelling and rigidity in each of the forelegs and hind legs of the experimental animals, their inhibitory effect on collagen-induced arthritis was evaluated on the following basis by a score ranging from 0 to 4 (with a maximum value of 16).
0: No symptom is observed.
2: Two or more small joints, or a relatively large joint such as that of the wrist or ankle, show rubor or swelling.
4: The total swelling of the hand or foot reaches its peak and, moreover, is accompanied by joint rigidity.

The test system of the next data set is 5-lipoxygenase. The data set can be described thus: Effect on 5-lipoxygenase activity. The format is biochemical, rats. As for the experimental part: Moreover, its inhibitory effect on 5-lipoxygenase was tested according to the method of Egan et al. (Journal of Biological Chemistry, 260: 11554-11559, 1985). Specifically, an enzyme preparation derived from the basophilic leukemia cells (RBL-1) of rats was used. This enzyme preparation, together with 30 μM Compound 3, was incubated at room temperature for 5 minutes, followed by the addition of linolenic acid. Thereafter, this mixture was incubated at room temperature for 8 minutes. After the reaction was stopped by the addition of a sodium hydroxide solution, its absorbance was measured at 234 nm.

Another data set can be described thus: Acute toxicity in mice. The format is in vivo, DBA/1J mice. Conditions: 100 mg/kg. As for the experimental part: Among the compounds in accordance with the present invention, each of Compounds 1, 2 and 3 was orally or intraperitoneally administered to eight DBA/1J mice in a dose of 100 mg/kg body weight. […] This seems to indicate that the compounds used in the present invention have no or very little, if any, acute toxicity. Moreover, Compound 1, in a dose of 100 mg/kg body weight, or Compound 3, in a dose of 30 mg/kg body weight, was orally administered to eight mice of the aforesaid strain for 40 days. […] Thus, the compounds of the present invention have little subacute toxicity. Since other compounds in accordance with the present invention are estimated to have similar properties, the compounds of the present invention can be used very safely.

With `COc1cc(O)c2c(=O)oc(C(C)C(=O)O)cc2c1` (stereo not shown) [Compound 3, 2-(8-hydroxy-6-methoxy-1-oxo-1H-2-benzopyran-3-yl)propionic Acid], the “Score after 37 days” value in data set [1] (1 mg/kg/day, control 9.25 ± 1.35) is listed as 6.50 ± 1.49; in data set [1] (3 mg/kg/day, control 9.25 ± 1.35) it was 5.00 ± 1.61; in data set [1] (10 mg/kg/day, **p < 0.01 vs control (9.25 ± 1.35)), 3.50 ± 0.63. In the data set on 5-lipoxygenase (30 μM Compound 3, n = 2), the “Degree of inhibition (%), 5-Lipoxygenase” value was found to be 21.0%. Also, the “inhibitory effect on lipoxygenase (in words)” value in the data set on 5-lipoxygenase (30 μM or 300 μM) is “no inhibitory effect on cyclooxygenase or lipoxygenase”. Besides, the “evidence of toxicity, single administration” value in “Acute toxicity in mice” (mouse, in vivo) is listed as “no animal showed evidences of toxicity”. In addition, the “mortality, single administration” value in “Acute toxicity in mice” (oral or intraperitoneal, eight DBA/1J mice) was “No animal died”.
